One compound from US20180344715A1, “WNT/BETA-CATENIN SIGNAL TRANSDUCTION INHIBITORS AND THEIR USE IN TREATMENT OR PREVENTION OF DISEASES AND CONDITIONS LINKED WITH SAID TRANSDUCTION” (BERGEN TEKNOLOGIOVERFORING AS, priority 2015, published 2018) can be followed below.

Each structure is given as a SMILES string.

Data set [1] concerns Wnt signals (TCF-GFP reporter). The data set can be described thus: TCF-GFP expression assay in transgenic zebrafish embryos. To be noted: embryos treated for 2 days. Type of data set: in vivo.
Method: Transgenic zebrafish harboring Tcf/Lef-miniP:dGFP reporter (line isi04) was obtained from National BioResource Project Zebrafish, Japan. Fish were kept under standard conditions and treated humanely in accordance with approved Institutional Animal Care and Use Committee of University of Bergen. For embryo experiments, embryos at 6 hpf (hours post fertilization) were cultured in 6-well plates (20 embryos per well) at 28° C. Embryos were treated with indicated chemicals and water was replenished daily. […] For TCF-GFP expression assay, embryos at 3 dpf were examined under fluorescence microscope. In both assays embryos that died during treatment were excluded from assessment.
Data set [2] has as its system SW480-7TGC cells. Nature of the data set: Wnt ACD assay. The data set is classed as cell-based. To be noted: 5 μM; never found in control cells. The source says: Unequal Wnt signaling was considered when paired cells had intensity ratio higher than 2.
Data set [3] concerns the target T1, SHPRH (Homo sapiens, UniProt Q149N8).
T1 construct: endogenous in cells; host or cells: SW480
Nature of the data set: SHPRH stability and ubiquitination in SW480 cells (cycloheximide, MG132). The data set is classed as cell-based. The conditions noted are these: SW480, 5 μM. The source says:
2D-DIGE images of the DARTS samples. […] Location of β-catenin binding motifs of indicated genes (left) and agarose gel analysis of ChIP-PCR reactions with indicated antibodies (right). d. Western blots of the CoIP samples of SW480 cells using indicated antibodies. e. […] WT, wild type; FL, full length. g. Overexpression of SHPRH in SW480 cells increases the ubiquitination level of β-catenin. h. […] Summary of the mechanisms by which axitinib blocks Wnt/β-catenin signaling.
Culture cells were lysed in RIPA buffer (50 mM Tris-HCl, pH 7.4, 150 mM NaCl, 1% NP-40, 0.5% sodium deoxycholate, 0.1% SDS, 1 mM EDTA) containing freshly added protease inhibitors (Roche, 11836153001). Protein lysates were resolved in Novex 10% BisTris MiniGels (Life technologies, NP0303BOX) and transferred onto PVDF membranes with Pierce 1-Step Transfer Buffer (Thermo Fisher Scientific, 84731). […] Proteins were visualized and captured by a ChemiDOC XRS system and Quantity One software (Bio-Rad Laboratories).
Cells were harvested and re-suspended with 100 μl ice cold TBS (50 mM Tris-HCL pH 8.0, 150 mM NaCl) containing 2 μM N-Ethylmaleimide crystalline that was supplemented to all the following buffers. […] Following addition of 80 μl 2% SDS sample buffer containing 10 mM DTT (Sigma, D9779), the beads were boiled at 98° C. for 5 minutes and collected with Magnet, the supernatant was analyzed by Western blotting.

The subject of data set [4] is β-catenin. The data set can be described thus: In vivo ubiquitination assay in SW480 cells. The data set is classed as cell-based. The conditions noted are these: SW480, with proteasome inhibitor MG132, 6 hours. On the procedure: Cells were harvested and re-suspended with 100 μl ice cold TBS (50 mM Tris-HCL pH 8.0, 150 mM NaCl) containing 2 μM N-Ethylmaleimide crystalline that was supplemented to all the following buffers. After adding 120 μl TBS containing 2% SDS and mixing quickly, cells were heated at 98° C. for 10 minutes and placed immediately on ice for 5 minutes. Cell lysates were incubated with 1.8 ml TBS containing 1% Triton X-100 and 3 μg antibody (β-catenin ab22656, clone 12F7, Abcam; SHPRH, ab80129, Abcam), at 4° C. overnight followed by incubation with 100 μl Protein G beads (Life technologies, 10004D) at 4° C. for 1 hour on rotator. Beads were collected with Magnet and serially washed once with 1 ml TBS containing 1% Triton X-100/0.1% SDS, twice with 1 ml TBS containing 0.5M LiCl and once with 1 ml TBS containing 1% Triton X-100. Following addition of 80 μl 2% SDS sample buffer containing 10 mM DTT (Sigma, D9779), the beads were boiled at 98° C. for 5 minutes and collected with Magnet, the supernatant was analyzed by Western blotting.

The subject of data set [5] is SW480 cells. The data set can be described thus: Soft agar colony-formation assay, SW480. The conditions noted are these: 10 days. The data set is classed as cell-based. Here is the method:
The soft agar colony-formation assay was performed using the CellTransformation Assays kit (catalog no. CBA-130; Cell Biolabs, Inc.) according to the recommended protocol. […] Medium containing drugs was replaced every 3 d. For the clonogenic assay, positively transfected cells (wild-type and mutant GFP-SHPRH and control GFP) were enriched by FACS and were seeded in six-well plates at a density of 3,000 cells per well. Medium was changed every 3 d. On the last day colony growth was quantified by crystal violet staining and measurement of OD at 590 nm.

The test system of data set [6] is SW480 cells. The data set can be described thus: EdU label release assay, SW480. Type of data set: cell-based. The conditions noted are these: SW480, 5 μM, 3 days; never found in control cells. On the procedure: Two days later, cells were seeded singly onto 12 mm glass coverslips in 24-well plates. One day after, EdU was detected using the Click-iT® Plus EdU Alexa Fluor 488 Imaging Kit (Life Technologies, C10637) according to the manufacturer's protocol. For double staining of EdU and other proteins, the EdU stained cells were further used for immunofluorescence staining as described above. Intensity of EdU staining in paired cells were quantified by Photoshop CS6 software, unequal EdU distribution was considered when paired cells had intensity ratio higher than 2.

Data set [7] concerns the target T1, SHPRH. Nature of the data set: Cellular thermal shift assay (CETSA), SHPRH. The conditions noted are these: SW480, 10 μM. The data set is classed as binding. On the procedure:
CETSA in intact cells was performed according to the protocol previously described (Martinez Molina, D. et al., 2013, Science 341, 84-87). Briefly, SW480 cells were seeded equally in 2 T75 flasks and allowed to reach 80% confluence one day after. […] After trypsinization and PBS wash, cells were resuspended in 450 μl PBS containing freshly added protease inhibitors and equally divided between 7 tubes. Cells in each tube were heated at indicated temperatures for 3 minutes and kept at room temperature for 3 minutes. Heated cells were lysed by 3 cycles of freezing in liquid nitrogen (1 minute) and thawing in room temperature water (1 minute). The cell lysates were centrifuged at 20,000 g for 20 minutes at 4° C. The soluble fractions were isolated for Western blotting analysis.

The test system of data set [8] is transgenic zebrafish. The data set can be described thus: Tailfin regeneration assay in adult TCF-GFP transgenic zebrafish. The conditions noted are these: 5 μM.

T1 sequence (Q149N8 whole entry): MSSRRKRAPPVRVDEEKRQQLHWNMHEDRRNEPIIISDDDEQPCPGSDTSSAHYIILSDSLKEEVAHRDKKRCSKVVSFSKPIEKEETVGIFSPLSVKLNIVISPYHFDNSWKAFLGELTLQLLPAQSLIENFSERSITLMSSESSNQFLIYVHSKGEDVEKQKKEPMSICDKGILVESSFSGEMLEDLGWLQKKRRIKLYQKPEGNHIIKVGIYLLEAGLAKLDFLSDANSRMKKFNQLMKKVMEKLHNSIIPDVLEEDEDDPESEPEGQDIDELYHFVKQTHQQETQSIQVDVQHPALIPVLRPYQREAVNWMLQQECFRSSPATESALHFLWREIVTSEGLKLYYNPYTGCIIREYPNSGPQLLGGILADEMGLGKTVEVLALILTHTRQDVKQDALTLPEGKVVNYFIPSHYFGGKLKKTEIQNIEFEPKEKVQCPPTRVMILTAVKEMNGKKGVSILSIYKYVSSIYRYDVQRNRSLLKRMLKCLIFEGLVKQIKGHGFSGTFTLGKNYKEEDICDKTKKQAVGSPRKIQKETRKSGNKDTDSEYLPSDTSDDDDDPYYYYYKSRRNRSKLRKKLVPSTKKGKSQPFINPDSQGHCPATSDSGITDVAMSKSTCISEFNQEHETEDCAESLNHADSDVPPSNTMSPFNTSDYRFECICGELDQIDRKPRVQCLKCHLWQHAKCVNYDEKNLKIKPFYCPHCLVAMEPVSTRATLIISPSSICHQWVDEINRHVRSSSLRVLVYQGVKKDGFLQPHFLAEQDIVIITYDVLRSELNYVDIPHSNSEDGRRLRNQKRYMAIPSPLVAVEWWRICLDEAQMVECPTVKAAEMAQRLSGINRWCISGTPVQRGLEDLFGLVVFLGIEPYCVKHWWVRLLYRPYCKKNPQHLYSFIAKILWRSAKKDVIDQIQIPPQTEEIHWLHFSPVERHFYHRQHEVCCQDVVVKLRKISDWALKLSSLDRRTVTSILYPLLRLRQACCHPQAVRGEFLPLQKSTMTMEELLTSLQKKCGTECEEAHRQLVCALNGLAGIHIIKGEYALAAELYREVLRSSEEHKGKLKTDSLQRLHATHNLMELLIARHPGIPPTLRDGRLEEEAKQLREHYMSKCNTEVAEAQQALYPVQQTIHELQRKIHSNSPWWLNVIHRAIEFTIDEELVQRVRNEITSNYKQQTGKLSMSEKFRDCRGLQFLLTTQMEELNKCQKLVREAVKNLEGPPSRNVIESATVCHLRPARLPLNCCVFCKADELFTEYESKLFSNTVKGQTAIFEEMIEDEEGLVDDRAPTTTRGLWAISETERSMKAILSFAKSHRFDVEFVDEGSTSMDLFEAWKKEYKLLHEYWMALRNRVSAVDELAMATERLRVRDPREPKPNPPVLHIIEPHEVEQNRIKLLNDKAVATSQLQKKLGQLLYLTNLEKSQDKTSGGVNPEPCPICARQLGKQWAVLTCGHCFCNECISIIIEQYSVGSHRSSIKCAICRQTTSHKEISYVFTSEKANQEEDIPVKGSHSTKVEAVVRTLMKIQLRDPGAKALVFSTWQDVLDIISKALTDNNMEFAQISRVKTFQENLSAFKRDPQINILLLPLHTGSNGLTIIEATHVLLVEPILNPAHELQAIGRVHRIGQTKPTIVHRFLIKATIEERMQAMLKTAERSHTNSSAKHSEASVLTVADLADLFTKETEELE

Take `CNC(=O)c1ccccc1Sc1ccc2c(/C=C/c3ccccn3)n[nH]c2c1` [axitinib, N-Methyl-2-[[3-[(E)-2-pyridin-2-ylethenyl]-1H-indazol-6-yl]sulfanyl]benzamide]: in data set [1], the “TCF-GFP expression in the midbrain/hindbrain boundary and fin mesenchyme” value is given as “decreased”. The “paired cells with unequal TCF-GFP expression (Wnt ACD)” value in data set [2] was “up to 10%”. In addition, the “stability of SHPRH” value in data set [3] (6 hours, with cycloheximide) is “increased”. In addition, the “ubiquitination level of SHPRH” value in data set [3] (MG132, 6 hours) is “decreased”. Further, the “ubiquitination of β-catenin” value in data set [4] is “increased its ubiquitination”. Besides, the colony growth entry in data set [5] was “strongly and dose-dependently inhibited”. For the same compound, the “cells with unequal EdU labelling (EdU ACD)” value in data set [6] was “around 15%”. Moreover, in data set [7], the “direct binding in intact living cells” value is recorded as “confirmed”. Further, in data set [8] (6 consecutive days), the “tailfin regrowth and TCF-GFP activation” value is listed as “completely inhibited”. The “intestine: crypt-villus architecture and incorporation of BrdU” value in data set [8] (6 days) is reported as “no significant change”.
